Assays:
Details in all cases: at 0.05 mM concentration; FIG. 9
α1 I-domain = biological target: T1, α1 I-domain (Homo sapiens, UniProt P56199); assay: Solid-phase binding assay, α1 I-domain binding to type I collagen
T1 construct: corresponding to amino acids 123-338 of the whole α1 integrin; made in house; host or cells: E. coli BL21 (pGEX-4T-3)
T1 sequence (P56199 151-366): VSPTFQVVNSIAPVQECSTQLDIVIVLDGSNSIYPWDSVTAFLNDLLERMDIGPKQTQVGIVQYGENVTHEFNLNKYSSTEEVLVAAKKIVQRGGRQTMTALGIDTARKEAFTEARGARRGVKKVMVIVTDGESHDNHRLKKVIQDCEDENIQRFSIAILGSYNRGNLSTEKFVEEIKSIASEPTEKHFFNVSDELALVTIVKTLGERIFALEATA
Method: (§1) Solid-phase binding assay for α1-domains—The coating of a 96-well high binding microtiter plate (Nune) was done by exposure to 0.1 ml of PBS containing 5 μg/cm2 (15 μg/ml) collagens or 20 μg/ml triple-helical peptides overnight at +4° C. Blank wells were coated with 1:1 solution of 0.1 ml Delfia® Diluent II (Wallac) and PBS. Residual protein absorption sites on all wells were blocked with 1:1 solution of 0.1 ml Delfia® Diluent II (Wallac) and PBS. Recombinant proteins (αI-GST) were added to the coated wells at a desired concentration in Delfia® Assay Buffer and incubated for 1 h at room temperature. Europium-labelled anti-GST antibody (Wallac) was then added (typically 1:1000), and the mixture was incubated for 1 h at room temperature. All incubations mentioned above were done in the presence of 2 mM MgCl2. Delfia® enhancement solution (Wallac) was added to each well and the Europium signal was measured by time-resolved fluorometry (Victor2 multilabel counter, Wallac). At least three parallel wells were analyzed. In some cases some what modified solid-phase assay was used and it was performed according Tulla et al, 2001. It uses anti-GST and Europium-labelled protein G instead of Europium-labelled anti-GST antibody.
The tetracyclic Streptomyces compounds synthesised in Example 1, where screened for inhibition of collagen binding to α1 and α2 I-domains, using the α I-domain assay described in Example 4. […] L3015 could inhibit the binding of both α1I and α2 I-domains to type I and type IV collagen (FIG. 6B).
Furthermore α1I and α2 I-domain binding to collagen I in the presence of lovastatin was tested in the europium-labelled anti-GST assay described in Example 4. Lovastatin is an allosteric inhibitor of leukocyte integrin α I-domains (e.g. αL I-domain), and the binding site of lovastatin represents an optional binding site for possible modulators. […] These biological tests gave further evidence that collagen receptor α I-domains are inhibited by direct blocking of the MIDAS surface by tetracyclic polyketide.

α10 I-domain = biological target: T2, α10 I-domain (Homo sapiens, UniProt O75578); assay: Solid-phase binding assay, α10 I-domain binding to type I collagen
T2 construct: corresponding to amino acids 141-337 of the whole α10 integrin; made in house; host or cells: E. coli BL21 (pGEX-2T)
T2 sequence (O75578 163-359): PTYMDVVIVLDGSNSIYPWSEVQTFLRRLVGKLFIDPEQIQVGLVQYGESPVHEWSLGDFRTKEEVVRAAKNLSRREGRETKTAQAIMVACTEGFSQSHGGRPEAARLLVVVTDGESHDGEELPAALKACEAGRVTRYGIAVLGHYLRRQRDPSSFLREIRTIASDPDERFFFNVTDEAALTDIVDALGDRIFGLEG
Method: as §1
(§2) The inhibitory effect of L3009 was tested with all collagen binding integrin α I-domains, α1I, α2I, α10I and α11I as described in Example 4. […]

α11 I-domain = biological target: T3, α11 I-domain (Homo sapiens, UniProt Q9UKX5); assay: Solid-phase binding assay, α11 I-domain binding to type I collagen
T3 construct: two extra residues before α11I, residues 159-354; made in house; host or cells: E. coli BL21
T3 sequence (Q9UKX5 159-354): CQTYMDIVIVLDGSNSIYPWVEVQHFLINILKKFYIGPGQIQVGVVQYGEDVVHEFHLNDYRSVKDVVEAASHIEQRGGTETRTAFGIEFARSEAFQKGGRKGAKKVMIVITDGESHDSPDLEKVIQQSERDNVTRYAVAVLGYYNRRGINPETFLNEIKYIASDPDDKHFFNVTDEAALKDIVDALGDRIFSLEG
Method: as §1, §2

inhibition of collagen I binding of α1I (α1 I-domain): could inhibit
inhibition of collagen I binding of α10I (α10 I-domain): could inhibit
inhibition of collagen I binding of α11I (α11 I-domain): could inhibit
SMILES: COC(=O)c1c(C(C)C)cc(O)c2c(O)c3c(c(O)c12)C(=O)c1cccc(O)c1C3=O [Compound L3009, methyl 4,5,7,12-tetrahydroxy-2-methylethyl)-6,11-dioxonaphthacenecarboxylate]

Reference: patent US20090286713A9, “Collagen Receptor I-Domain Binding Modulators” (Biotie Therapies Corporation, priority 2005, published 2009)
